According to US10570184B2, “GLP-1/glucagon receptor co-agonists for medical use” (Novo Nordisk A/S, priority 2014, dated 2020):
Starred links: 1 amine or outer side, 2 acyl side, 3 side chain; linkers in the order of their positions; H or OH if unused. Non-standard residues stand in square brackets, D forms with d. Residues, ends and D or L forms follow the SMILES beside them. Groups on a side chain read outwards from the residue. *: point of attachment. C18 diacid = O=C(O)CCCCCCCCCCCCCCCCC(=O)*; γGlu = O=C(O)[C@H](CCC(=O)[*:2])N[*:1]; Ac4c = NC1(C(=O)O)CCC1; AEEA = NCCOCCOCC(=O)O; Aib = CC(C)(N)C(=O)O

Molecular target: T1, human glucagon receptor (Homo sapiens, UniProt P47871)
T1 construct: expressed in transfected cells; host or cells: membranes of BHK cells, clone BHK hGCGR A3*25
T1 sequence (P47871 26-477): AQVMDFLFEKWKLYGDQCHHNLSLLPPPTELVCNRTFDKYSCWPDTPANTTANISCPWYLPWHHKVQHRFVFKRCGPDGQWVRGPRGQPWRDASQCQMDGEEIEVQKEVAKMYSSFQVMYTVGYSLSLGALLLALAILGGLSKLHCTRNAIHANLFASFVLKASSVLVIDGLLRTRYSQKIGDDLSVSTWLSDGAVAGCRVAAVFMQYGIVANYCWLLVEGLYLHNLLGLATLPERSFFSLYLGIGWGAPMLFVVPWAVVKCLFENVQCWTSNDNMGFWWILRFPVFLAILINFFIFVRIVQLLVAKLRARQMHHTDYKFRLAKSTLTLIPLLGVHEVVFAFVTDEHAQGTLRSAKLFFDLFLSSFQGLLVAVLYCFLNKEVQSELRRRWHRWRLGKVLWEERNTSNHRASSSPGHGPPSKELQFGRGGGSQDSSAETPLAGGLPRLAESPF
Assay: Assay (I)(b) glucagon receptor activation, CRE luciferase reporter gene assay in BHK cells
Format: cell-based
Conditions: without presence of serum albumin; read-out: GlucagonR EC50 (pM), [Assay (I)(b)]
Description: The purpose of this example was to test the activity or potency, of the glucagon derivatives of the invention, in vitro. The in vitro potency is the measure of human GLP-1 receptor (GLP-1R) or glucagon receptor (glucagonR) activation, respectively, in a whole cell assay. In vitro potency was determined by measuring the response of human GLP-1 or glucagon receptor, respectively, in a reporter gene assay. The assay was performed in a stably transfected BHK cell line that expresses either the human GLP-1 receptor or the human glucagon receptor and contains the DNA for the cAMP response element (CRE) coupled to a promoter and the gene for firefly luciferase (CRE luciferase). […] When assay incubation was completed, the luciferase substrate (luciferin) was added and the enzyme converted luciferin to oxyluciferin and produces bioluminescence. The luminescence was measured as the readout for the assay. The cells used in this assay (clone pLJ6′-4-25) were BHK cells with BHK570 as a parent cell line expressing the CRE luciferase gene (clone BHK/KZ10-20-48) and were established by further transfection with the human glucagon receptor (clone pLJ6′ in pHZ-1 vector). The cells were cultured at 5% CO2 in DMEM medium with 10% FBS, 1×GlutaMAX, 1 mg/ml G418, 240 nM MTX (methotrexate) and 1% pen/strep (penicillin/streptomycin). They were aliquoted and stored in liquid nitrogen. Before each assay, an aliquot was taken up and washed three times in PBS before being suspended at the desired concentration in assay medium. For 96-well plates the suspension was made to give a final concentration of 5×10EE3 cells/well. The following chemicals were used in the assay: Pluronic F-68 (10%) (Gibco 2404), ovalbumin (Sigma A5503), DMEM w/o phenol red (Gibco 11880-028), 1 M Hepes (Gibco 15630), Glutamax 100× (Gibco 35050) and steadylite plus (PerkinElmer 6016757). Assay Medium consisted of DMEM w/o phenol red, 10 mM Hepes, 1× GlutaMAX, 2% Ovalbumin and 0.2% Pluronic F-68. Cell stocks were thawed in a 37° C. water bath. Cells were washed three times in PBS. The cells were counted and adjusted to 5×10EE3 cells/50 μl (1×10EE5 cells/ml) in Assay Medium. A 50 μl aliquot of cells was transferred to each well in the assay plate. Stocks of the test compounds and reference compounds were diluted to a concentration of […] in Assay Medium. Compounds were diluted 10-fold to give the following concentrations: 2×10EE-6 M, 2×10EE-7 M, 2×10EE-8 M; 2×10EE-9 M, 2×10EE-10 M, 2×10EE-11 M, 2×10EE-12 M and 2×10EE-13 M. For each compound a blank assay medium control was also included. A 50 μl aliquot of compound or blank was transferred from the dilution plate to the assay plate. Compounds were tested at the following final concentrations: 1×10EE-6 M, 1×10EE-7 M, 1×10EE-8 M; 1×10EE-9 M, 1×10EE-10 M, 1×10EE-11 M and 1×10EE-12 M and 1×10EE-13 M. The assay plate was incubated for 3 h in a 5% CO2 incubator at 37° C. The assay plate was removed from the incubator and allowed to stand at room temperature for 15 min. A 100 μl aliquot of steadylite plus reagent was added to each well of the assay plate (reagent is light sensitive). Each assay plate was covered with aluminum foil to protect it from light and shaken for 30 min at room temperature. Each assay plate was read in a Perkin Elmer TopCount NXT instrument. The data from the TopCount instrument was transferred to GraphPad Prism software. The software performed a non-linear regression (log(agonist) vs response-Variable slope (four parameter)). EC50 values were calculated by the software and reported in pM.

Compared with CC[C@H](C)[C@H](NC(=O)[C@H](CC(C)C)NC(=O)[C@H](Cc1c[nH]c2ccccc12)NC(=O)[C@H](CCC(N)=O)NC(=O)[C@@H](NC(=O)[C@H](Cc1ccccc1)NC(=O)[C@H](CC(=O)O)NC(=O)[C@H](CCCNC(=N)N)NC(=O)[C@H](C)NC(=O)[C@H](CCCNC(=N)N)NC(=O)[C@H](CCCNC(=N)N)NC(=O)[C@H](C)NC(=O)[C@H](CC(=O)O)NC(=O)[C@H](CC(C)C)NC(=O)[C@H](Cc1ccc(O)cc1)NC(=O)[C@H](CCCCN)NC(=O)[C@H](CO)NC(=O)[C@H](CC(C)C)NC(=O)[C@H](CC(=O)O)NC(=O)[C@H](CO)NC(=O)[C@@H](NC(=O)[C@H](Cc1ccccc1)NC(=O)[C@@H](NC(=O)CNC(=O)[C@H](CCC(N)=O)NC(=O)C(C)(C)NC(=O)[C@@H](N)Cc1c[nH]cn1)[C@@H](C)O)[C@@H](C)O)C(C)C)C(=O)N[C@@H](CO)C(=O)N[C@@H](CCCCNC(=O)CC[C@H](NC(=O)CC[C@H](NC(=O)COCCOCCNC(=O)COCCOCCNC(=O)CC[C@H](NC(=O)CCCCCCCCCCCCCCCCC(=O)O)C(=O)O)C(=O)O)C(=O)O)C(N)=O [Chem. 27, N^ε29-[(4S)-4-carboxy-4-[[(4S)-4-carboxy-4-[[2-[2-[2-[[2-[2-[2-[[(4S)-4-carboxy-4-(17-carboxyheptadecanoylamino)butanoyl]amino]ethoxy]ethoxy]acetyl]amino]ethoxy]ethoxy]acetyl]amino]butanoyl]amino]butanoyl]-[Aib2,Leu10,Ala16,Arg20,Ile27,Ser28,Lys29]-Glucagon amide] (H-H[Aib]QGTFTSDLSKYLDARRARDFVQWLISK([γGlu-γGlu-AEEA-AEEA-γGlu-C18 diacid])-NH2; N-terminus assumed), CC[C@H](C)[C@H](NC(=O)[C@H](CC(C)C)NC(=O)[C@H](Cc1c[nH]c2ccccc12)NC(=O)[C@H](CCC(N)=O)NC(=O)[C@@H](NC(=O)[C@H](Cc1ccccc1)NC(=O)[C@H](CCC(=O)O)NC(=O)[C@H](CCCNC(=N)N)NC(=O)[C@H](C)NC(=O)[C@H](CCCNC(=N)N)NC(=O)[C@H](CCCNC(=N)N)NC(=O)[C@H](CO)NC(=O)[C@H](CCC(=O)O)NC(=O)[C@H](CC(C)C)NC(=O)[C@H](Cc1ccc(O)cc1)NC(=O)[C@H](CCCCN)NC(=O)[C@H](CO)NC(=O)[C@H](CC(C)C)NC(=O)[C@H](CC(=O)O)NC(=O)[C@H](CO)NC(=O)[C@@H](NC(=O)[C@H](Cc1ccccc1)NC(=O)[C@@H](NC(=O)CNC(=O)[C@H](CCC(N)=O)NC(=O)C1(NC(=O)[C@@H](N)Cc2c[nH]cn2)CCC1)[C@@H](C)O)[C@@H](C)O)C(C)C)C(=O)N[C@@H](CCCCNC(=O)COCCOCCNC(=O)COCCOCCNC(=O)CC[C@H](NC(=O)CC[C@H](NC(=O)CCCCCCCCCCCCCCCCC(=O)O)C(=O)O)C(=O)O)C(=O)N[C@H](C(N)=O)[C@@H](C)O [Chem. 18, N^ε28-[2-[2-[2-[[2-[2-[2-[[(4S)-4-carboxy-4-[[(4S)-4-carboxy-4-(17-carboxyheptadecanoylamino)butanoyl]amino]butanoyl]amino]ethoxy]ethoxy]acetyl]amino]ethoxy]ethoxy]acetyl]-[Acb2,Leu10,Glu15,Arg20,Glu21,Ile27,Lys28]-Glucagon amide] (H-H[Ac4c]QGTFTSDLSKYLESRRAREFVQWLIK([AEEA-AEEA-γGlu-γGlu-C18 diacid])T-NH2) is 2.1-fold lower in EC50: 66 pM for the first, 32 pM for the second. The second is the more potent here.

Compound CC[C@H](C)[C@H](NC(=O)[C@H](CC(C)C)NC(=O)[C@H](Cc1c[nH]c2ccccc12)NC(=O)[C@H](CCC(N)=O)NC(=O)[C@@H](NC(=O)[C@H](Cc1ccccc1)NC(=O)[C@H](CCC(=O)O)NC(=O)[C@H](CCC(N)=O)NC(=O)[C@H](C)NC(=O)[C@H](CCCNC(=N)N)NC(=O)[C@H](CCCNC(=N)N)NC(=O)[C@H](CO)NC(=O)[C@H](CCC(=O)O)NC(=O)[C@H](CC(C)C)NC(=O)[C@H](Cc1ccc(O)cc1)NC(=O)[C@H](CCCCN)NC(=O)[C@H](CO)NC(=O)[C@H](CC(C)C)NC(=O)[C@H](CC(=O)O)NC(=O)[C@H](CO)NC(=O)[C@@H](NC(=O)[C@H](Cc1ccccc1)NC(=O)[C@@H](NC(=O)CNC(=O)[C@H](CCC(N)=O)NC(=O)C1(NC(=O)[C@@H](N)Cc2c[nH]cn2)CCC1)[C@@H](C)O)[C@@H](C)O)C(C)C)C(=O)N[C@@H](CCCCNC(=O)CC[C@H](NC(=O)COCCOCCNC(=O)COCCOCCNC(=O)CC[C@H](NC(=O)CC[C@H](NC(=O)CCCCCCCCCCCCCCCCC(=O)O)C(=O)O)C(=O)O)C(=O)O)C(=O)N[C@H](C(N)=O)[C@@H](C)O [Chem. 38, N^ε28-[(4S)-4-carboxy-4-[[2-[2-[2-[[2-[2-[2-[[(4S)-4-carboxy-4-[[(4S)-4-carboxy-4-(17-carboxyheptadecanoylamino)butanoyl]amino]butanoyl]amino]ethoxy]ethoxy]acetyl]amino]ethoxy]ethoxy]acetyl]amino]butanoyl]-[Acb2,Leu10,Glu15,Glu21,Ile27,Lys28]-Glucagon amide] (H-H[Ac4c]QGTFTSDLSKYLESRRAQEFVQWLIK([γGlu-AEEA-AEEA-γGlu-γGlu-C18 diacid])T-NH2; N-terminus assumed) has an EC50 of 12 pM.
